Values quoted from earlier work in patent US6500632B1, “Assay for screening inhibitors of C4 plant enzymes” (Australian Institute of Marine Science, priority 1998, dated 2002).

Key:
[1] = target: T1, phosphoenolpyruvate carboxylase (Zea mays, UniProt P04711); conditions: literature (Jenkins et al.; McFadden et al.)
T1 sequence (P04711 1-970): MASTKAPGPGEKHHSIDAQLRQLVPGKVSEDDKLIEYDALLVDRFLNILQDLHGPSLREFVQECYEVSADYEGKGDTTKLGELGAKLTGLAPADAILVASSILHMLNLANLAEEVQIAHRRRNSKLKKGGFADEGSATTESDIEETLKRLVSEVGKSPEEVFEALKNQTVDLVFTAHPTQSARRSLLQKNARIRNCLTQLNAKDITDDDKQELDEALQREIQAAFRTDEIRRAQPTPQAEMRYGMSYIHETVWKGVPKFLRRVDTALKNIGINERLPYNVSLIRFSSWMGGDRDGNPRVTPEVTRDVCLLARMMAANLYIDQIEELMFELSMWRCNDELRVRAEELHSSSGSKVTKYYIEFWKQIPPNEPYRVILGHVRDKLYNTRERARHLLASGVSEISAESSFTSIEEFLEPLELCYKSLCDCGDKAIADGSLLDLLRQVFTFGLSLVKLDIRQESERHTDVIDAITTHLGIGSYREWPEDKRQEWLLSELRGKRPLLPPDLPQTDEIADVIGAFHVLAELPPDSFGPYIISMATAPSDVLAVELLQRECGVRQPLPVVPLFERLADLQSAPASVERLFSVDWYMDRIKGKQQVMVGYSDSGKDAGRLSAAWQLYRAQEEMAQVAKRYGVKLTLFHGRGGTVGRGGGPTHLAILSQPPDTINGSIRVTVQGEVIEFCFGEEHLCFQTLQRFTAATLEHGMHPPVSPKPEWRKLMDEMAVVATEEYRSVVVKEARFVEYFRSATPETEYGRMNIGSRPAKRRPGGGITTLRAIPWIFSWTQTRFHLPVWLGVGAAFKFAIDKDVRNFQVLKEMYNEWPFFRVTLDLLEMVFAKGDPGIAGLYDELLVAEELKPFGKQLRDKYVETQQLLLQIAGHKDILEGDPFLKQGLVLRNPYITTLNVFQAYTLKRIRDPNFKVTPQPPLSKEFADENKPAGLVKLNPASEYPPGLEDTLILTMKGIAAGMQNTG

C4 plants = conditions: literature

## 3,3-dichloro-2(dihydroxy-phosphinoylmethyl)propenoate
[1]
  inhibition of a C4 enzyme (phosphoenolpyruvate carboxylase): specifically inhibited
C4 plants
  effect on the growth of C4 plants: no effect
